The source of these data is patent US8691184B2, “Bcl-2/Bcl-xL inhibitors and therapeutic methods using the same” (The Regents of the University of Michigan, priority 2011, dated 2014).

Values joined by “and” are separate entries in the source; they are usually repeats but may differ in a detail not shown here. Equal entries are not always repeated. Where two headings read alike, the source gives them in different places.

For series [1], the target named is Bcl-2 (Homo sapiens, UniProt P10415). In words: FP-based binding assay, Bcl-2.
The subject of series [2] is H146 cells. Description: Cell growth assay (WST-8), H146. Particulars: Homo sapiens, NCI-H146, 96 h; Table 4, 4 days; read-out: Cell Growth Inhibition (IC50 ± SD, nM) H146. Type of series: cell-based. How it is done:
(§1) RS4;11 and H146 cells were seeded in 96-well cell culture plates at a density of 10,000 cells/well with serially diluted compounds and incubated at 37° C. in an atmosphere of 95% air and 5% CO2 for 4 days. Cell viability was determined using the WST-8 (2-(2-methoxy-4-nitrophenyl)-3-(4-nitrophenyl)-5-(2,4-disulfophenyl)-2H-tetrazolium, monosodium salt) based Cell Counting-8 Kit (Dojindo Molecular Technologies, Inc., Rockville, Md.) according to the manufacture's instruction. Briefly, WST-8 was added to each well at a final concentration of 10% (v/v), and then the plates were incubated at 37° C. for 1˜2 hours for color development. The absorbance was measured at 450 nm using a SPECTRAmax PLUS plate reader (Molecular Devices, Sunnyvale, Calif.). The half maximal inhibitory concentration (IC50) was calculated using the GraphPad Prism 5 software (GraphPad Software, La Jolla, Calif.).
A general note: Formazan colour is commonly taken as a measure of viable cells.

Series [3] concerns RS4;11 cells. In words: Cell growth assay (WST-8), RS4;11. Type of series: cell-based. The settings on record: Homo sapiens, RS4-11, 96 h; Table 4, 4 days; read-out: Cell Growth Inhibition (IC50 ± SD, nM) RS4;11. How it is done:
as §1

The target in series [4] is Bcl-xL (Homo sapiens, UniProt Q07817). In words: FP-based binding assay, Bcl-xL. Particulars: for Ki: Binding Affinities Bcl-xL Ki ± SD (nM), Table 4, * Ki is an estimate, compound more potent than the tracer.
Series [5] has as its system ML-2 acute myeloid leukemia (AML) cell line. Description: Cell growth assay (WST-8), ML-2. The settings on record: Table 4; read-out: Cell Growth Inhibition (IC50 ± SD, nM) ML-2. Type of series: cell-based.
The target of series [6] is Mcl-1 (Homo sapiens, UniProt Q07820). Description: FP-based binding assay, Mcl-1. Particulars: for IC50: Table 4, FP-based assay, read-out: Binding Affinities Mcl-1 IC50 ± SD.
Series [7] can be described thus: Toxicity (maximum tolerated dose) in SCID mice. Type of series: in vivo.
From the text: These experiments established the maximum tolerated doses (MTD).
Setting [8] is: read-out: Binding Affinities Bcl-xL IC50 ± SD, Table 4, FP-based assay.

Bcl-2, sequence (P10415 whole entry): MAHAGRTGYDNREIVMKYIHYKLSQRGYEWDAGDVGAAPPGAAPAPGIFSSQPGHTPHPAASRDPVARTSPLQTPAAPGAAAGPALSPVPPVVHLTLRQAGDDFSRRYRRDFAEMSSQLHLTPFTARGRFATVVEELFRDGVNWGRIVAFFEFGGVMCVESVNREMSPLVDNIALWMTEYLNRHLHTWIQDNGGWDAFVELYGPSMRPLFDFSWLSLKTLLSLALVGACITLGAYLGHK
Bcl-xL, sequence (Q07817 whole entry): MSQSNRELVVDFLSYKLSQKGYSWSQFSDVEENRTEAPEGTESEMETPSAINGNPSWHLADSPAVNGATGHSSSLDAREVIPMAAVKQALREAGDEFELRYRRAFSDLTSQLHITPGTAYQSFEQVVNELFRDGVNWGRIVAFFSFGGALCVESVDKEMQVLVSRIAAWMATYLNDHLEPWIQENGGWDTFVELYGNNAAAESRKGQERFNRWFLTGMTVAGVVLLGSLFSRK
Mcl-1, sequence (Q07820 whole entry, species assumed): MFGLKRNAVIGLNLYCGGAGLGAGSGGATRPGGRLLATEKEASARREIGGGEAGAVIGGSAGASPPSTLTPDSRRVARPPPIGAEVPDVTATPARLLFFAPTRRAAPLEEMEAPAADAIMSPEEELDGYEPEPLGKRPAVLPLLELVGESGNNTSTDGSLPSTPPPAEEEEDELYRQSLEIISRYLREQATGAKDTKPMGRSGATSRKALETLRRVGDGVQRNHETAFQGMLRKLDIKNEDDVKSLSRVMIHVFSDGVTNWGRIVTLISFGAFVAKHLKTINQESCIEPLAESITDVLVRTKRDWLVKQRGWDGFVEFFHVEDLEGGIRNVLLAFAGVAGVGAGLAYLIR

Regarding `CNC(=O)c1c(-c2cccc(N3CCN(c4ccc(NS(=O)(=O)c5ccc(N[C@H](CCN6CCOCC6)CSc6ccccc6)c([N+](=O)[O-])c5)cc4)CC3)c2)c(-c2ccc(Cl)cc2)n(C)c1C` [Compound 124], the 50% inhibitory concentration (IC50) in series [1] was 14 ± 2 nM; in series [2], 178 ± 65 nM; in series [3] it was 89 ± 30 nM; in series [4], 5 ± 1 nM; in series [5], 382 ± 138 nM; in series [6] it was above 10000 nM. Further, the results for the Ki in series [1] and in series [4] were 3 ± 0.6 nM and 1 ± 0.2 nM, respectively.

`CNC(=O)c1c(-c2cccc(N3CCN(c4ccc(NS(=O)(=O)c5ccc(N[C@H](CCN(C)C)CSc6ccccc6)c([N+](=O)[O-])c5)cc4)CC3)c2)c(-c2ccc(Cl)cc2)n(C)c1C` [Compound 125]: the IC50 in series [1] (read-out: Binding Affinities Bcl-2 IC50 ± SD, Table 4, FP-based assay) was 5 ± 1 nM; in series [2], 36 ± 26 nM; in series [3], 74 ± 44 nM; in series [4] (setting [8]), 6 ± 3 nM; in series [5], 215 ± 52 nM; in series [6] it was above 10000 nM. The inhibition constant (Ki) was 1.1 ± 0.2 nM in series [1] (read-out: Binding Affinities Bcl-2 Ki ± SD, Table 4, * Ki is an estimate, compound more potent than the tracer) and 1.6 ± 0.8 nM in series [4].

Regarding `CN(C)CC[C@@H](CSc1ccccc1)Nc1ccc(S(=O)(=O)Nc2ccc(N3CCN(c4cccc(-c5ccnn5-c5ccc(Cl)cc5)c4)CC3)cc2)cc1[N+](=O)[O-]` [Compound 130], the “Weight loss or other signs of toxicity” value in series [7] (female SCID mice, intravenously, daily, 5-times a week for 2 weeks, 25 mg/kg) is “no or minimal weight loss or other signs of toxicity”.

Take `Cc1c(C(=O)NS(C)(=O)=O)c(-c2cccc(N3CCN(c4ccc(NS(=O)(=O)c5ccc(N[C@H](CCN(C)C)CSc6ccccc6)c([N+](=O)[O-])c5)cc4)CC3)c2)c(-c2ccc(Cl)cc2)n1C` [Compound 133]: the half-maximal inhibitory concentration (IC50) in series [1] was 1 ± 0.2 nM; in series [2] it was 38 ± 22 nM; in series [3] it was 87 ± 19 nM; in series [4] (setting [8]), 5 ± 1 nM; in series [5], 160 ± 53 nM; in series [6], above 10000 nM. Besides, the Ki in series [1] was below 1 nM; in series [4], 1.3 ± 0.3 nM. Further, in series [7] (SCID mice, 50 mg/kg), the “Weight loss at higher dose” value is reported as “caused weight loss”.

With `Cc1cc(-c2cccc(N3CCN(c4ccc(NS(=O)(=O)c5ccc(N[C@H](CCN(C)C)CSc6ccccc6)c([N+](=O)[O-])c5)cc4)CC3)c2)c(-c2ccc(Cl)cc2)n1C` [Compound 168, (R)—N-(4-(4-(3-(2-(4-chlorophenyl)-1,5-dimethyl-1H-pyrrol-3-yl)phenyl)piperazin-1-yl)phenyl)-4-((4-(dimethylamino)-1-(phenylthio)butan-2-yl)amino)-3-nitrobenzenesulfonamide], in series [4], the half-inhibitory concentration (IC50) is 3 ± 0.4 nM; the inhibitory constant (Ki) is 3 nM and < 1 nM. In series [6], the IC50 was above 5000 nM.

In the case of `Cc1c(C(=O)O)c(-c2cccc(N3CCN(c4ccc(NS(=O)(=O)c5ccc(N[C@H](CCN(C)C)CSc6ccccc6)c([N+](=O)[O-])c5)cc4)CC3)c2)c(-c2ccc(Cl)cc2)n1C` [Compound 178, (R)-5-(4-chlorophenyl)-4-(3-(4-(4-(4-((4-(dimethylamino)-1-(phenylthio)butan-2-yl)amino)-3-nitrophenylsulfonamido)phenyl)piperazin-1-yl)phenyl)-1,2-dimethyl-1H-pyrrole-3-carboxylic acid], the IC50 in series [1] was 1 ± 0.1 nM; in series [2], 87 ± 60 nM; in series [3], 26 ± 4 nM; in series [4] (setting [8]) it was 6 ± 4 nM; in series [5], 124 ± 62 nM; in series [6] it was above 10000 nM. The figures for the Ki in series [1] and in series [4] were below 1 nM and 1.6 ± 1 nM, respectively.

With `Cc1c(C(=O)O)c(-c2cccc(N3CCN(c4ccc(NS(=O)(=O)c5ccc(N[C@H](CCN(C)C)CSc6ccccc6)c(S(=O)(=O)C(F)(F)F)c5)cc4)CC3)c2)c(-c2ccc(Cl)cc2)n1C` [Compound 185, (R)-5-(4-chlorophenyl)-4-(3-(4-(4-(4-((4-(dimethylamino)-1-(phenylthio)butan-2-yl)amino)-3-((trifluoromethyl)sulfonyl)phenylsulfonamido)phenyl)piperazin-1-yl)phenyl)-1,2-dimethyl-1H-pyrrole-3-carboxylic acid], the half-inhibitory concentration (IC50) in series [1] is 2.2 ± 1.6 nM; in series [2], 177 ± 73 nM; in series [3], 81 ± 7 nM; in series [4], 5 ± 4 nM; in series [5], 550 ± 204 nM; in series [6] it was above 10000 nM. Also, the values for the Ki in series [1] and in series [4] were below 1 nM and 1.3 ± 1 nM, respectively.

For the compound `Cc1c(C(=O)O)c(-c2cccc(N3CCN(c4ccc(NS(=O)(=O)c5ccc(N[C@H](CCN6CCOCC6)CSc6ccccc6)c(S(=O)(=O)C(F)(F)F)c5)cc4)CC3)c2)c(-c2ccc(Cl)cc2)n1C` [Compound 186, (R)-5-(4-chlorophenyl)-1,2-dimethyl-4-(3-(4-(4-(4-((4-morpholino-1-(phenylthio)butan-2-yl)amino)-3-((trifluoromethyl)sulfonyl)phenylsulfonamido)phenyl)piperazin-1-yl)phenyl)-1H-pyrrole-3-carboxylic acid], the IC50 is 14 ± 3 nM in series [1]; 430 ± 207 nM in series [2]; 493 ± 64 nM in series [3]; 6 ± 3 nM in series [4]; 1090 ± 562 nM in series [5]; above 10000 nM in series [6]. For the same compound, the Ki was 3.4 ± 0.6 nM in series [1] and 1.6 ± 0.8 nM in series [4].

On to `Cc1c(C(=O)O)c(-c2cccc(N3CCN(c4ccc(NS(=O)(=O)c5ccc(N[C@H](CCN6CCOCC6)CSc6ccccc6)c([N+](=O)[O-])c5)cc4)CC3)c2)c(-c2ccc(Cl)cc2)n1C` [Compound 187, (R)-5-(4-chlorophenyl)-1,2-dimethyl-4-(3-(4-(4-(4-((4-morpholino-1-(phenylthio)butan-2-yl)amino)-3-nitrophenylsulfonamido)phenyl)piperazin-1-yl)phenyl)-1H-pyrrole-3-carboxylic acid], for which the IC50 is 2 ± 1 nM in series [1]; 181 ± 61 nM in series [2]; 99 ± 28 nM in series [3]; 5 ± 2 nM in series [4]; 225 ± 49 nM in series [5]; above 10000 nM in series [6]. Further, the inhibition constant Ki is below 1 nM in series [1] and 1.3 ± 0.6 nM in series [4].

As to “Flu-BID: "Homemade fluorescein labeled" "BID (79-99)" peptide, fluorescent probe "in FP assays for" Mcl-1 [reference compound]”, in series [6] (saturation FP, 2 nM probe, increasing protein, read-out: Kd of fluorescent probe to Mcl-1), the Kd was found to be 6.8 ± 1.5 nM.

A word on the IC50: it is the concentration that gives 50% inhibition. By Ki is commonly meant a dissociation constant, usually derived from enzyme kinetics or from competition with a known ligand. By Kd is commonly meant a measure of binding affinity in units of concentration.
